From BindingDB's records for 0.1007/s00044-005-0126-y (University, Mississippi, 2005)

Assays:
[1] = target: T1, Cysteine proteinase falcipain 3 (Plasmodium falciparum (isolate 3D7), UniProt Q8IIL0); assay: In Vitro Inhibition Assay
T1 sequence (Q8IIL0 whole entry): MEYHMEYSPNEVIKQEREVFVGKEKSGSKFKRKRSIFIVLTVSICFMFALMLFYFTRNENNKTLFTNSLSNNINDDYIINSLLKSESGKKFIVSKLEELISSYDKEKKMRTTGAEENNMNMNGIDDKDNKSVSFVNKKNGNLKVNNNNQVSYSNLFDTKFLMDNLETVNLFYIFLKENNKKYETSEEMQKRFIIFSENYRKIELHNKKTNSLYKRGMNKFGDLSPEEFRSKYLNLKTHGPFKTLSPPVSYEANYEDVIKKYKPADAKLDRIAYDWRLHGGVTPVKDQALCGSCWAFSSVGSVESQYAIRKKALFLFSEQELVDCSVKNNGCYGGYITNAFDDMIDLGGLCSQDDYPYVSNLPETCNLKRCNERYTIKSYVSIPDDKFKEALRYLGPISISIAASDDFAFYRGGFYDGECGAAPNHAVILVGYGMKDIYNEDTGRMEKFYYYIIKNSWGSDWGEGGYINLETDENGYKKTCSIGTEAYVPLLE
Experimental: (§1) In vitro antimalarial assay, antimalarial activity of the compounds was determined in vitro on chloroquine sensitive and resistant strains of plasmodium flaciparum as described earlier.

[2] = target: T2, Cysteine proteinase falcipain 2a (Plasmodium falciparum, UniProt Q9NBD4); assay: In Vitro Inhibition Assay
T2 sequence (Q9NBD4 whole entry): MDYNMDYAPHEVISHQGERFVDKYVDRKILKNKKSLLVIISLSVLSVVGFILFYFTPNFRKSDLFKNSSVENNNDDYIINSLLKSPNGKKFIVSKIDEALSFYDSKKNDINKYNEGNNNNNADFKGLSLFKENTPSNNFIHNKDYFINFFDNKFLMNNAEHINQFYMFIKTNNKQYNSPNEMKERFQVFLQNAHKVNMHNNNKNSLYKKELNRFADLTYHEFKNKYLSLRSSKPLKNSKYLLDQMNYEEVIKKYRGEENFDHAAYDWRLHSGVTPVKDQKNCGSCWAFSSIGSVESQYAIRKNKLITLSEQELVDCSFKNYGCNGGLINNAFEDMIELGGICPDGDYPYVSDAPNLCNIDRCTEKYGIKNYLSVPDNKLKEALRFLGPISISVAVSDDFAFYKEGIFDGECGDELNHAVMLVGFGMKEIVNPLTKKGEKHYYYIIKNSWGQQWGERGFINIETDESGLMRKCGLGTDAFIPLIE
Experimental: as §1

Compound	IC50 [1] [µM]	IC50 [2] [µM]
O=C(C=Cc1nc(CCc2ccccc2)c(CCCO)s1)CSCCCc1ccccc1 [Trisubsituted thiazole, 14]	29.4	6.6
O=C(CCc1nc(CCc2ccccc2)c(CCCO)s1)CSCCCc1ccccc1 [Trisubsituted thiazole, 15]	> 50	> 12.5
O=CCCc1sc(CCC(=O)CSCCCc2ccccc2)nc1CCc1ccccc1 [Trisubsituted thiazole, 16]	> 50	39.1
NC(=O)CCc1sc(CCC(=O)CSCCCc2ccccc2)nc1CCc1ccccc1 [Trisubsituted thiazole, 17]	> 50	> 33
CC(=O)NCCCc1sc(CCC(=O)CSCCCc2ccccc2)nc1CCc1ccccc1 [Trisubsituted thiazole, 20]	> 50	> 33
NC(=O)CCc1sc(NC(=O)CSCCCc2ccccc2)nc1/C=C/c1ccccc1 [Trisubsituted thiazole, 23]		15.3
O=C(CCc1nc(CO)c(CCc2ccccc2)s1)CSCCCc1ccccc1 [Trisubsituted thiazole, 29]	> 50	> 12.5
CC(=O)OCc1nc(CCC(=O)CSCCCc2ccccc2)sc1CCc1ccccc1 [Trisubsituted thiazole, 30]	> 50	> 33
